# Data taken from patent publication US12497376B2, “Compound [2-(dimethylamino)-2-phenylbutyl]-3,4,5-trimethoxybenzoate 4-methyl-2H-chromen-2-on-7-yl sulphate and use thereof” (LTD “VALENTA—INTELLEKT”, priority 2020, dated 2025).
# System: male mice of the C57 BL/6 line
# Assay: von Frey filament test (mechanical allodynia) in the model of visceral pain induced by TNBS colitis
# Assay type: in vivo
# Conditions: for Mechanical allodynia intensity, g (mean ± standard error of the mean): oral once daily from day 3 after TNBS, von Frey test on Day 28, placebo 2.0 ± 0.5
# Description: In the experiments, 13-week old male mice of the C57 BL/6 line were used. Sixty (60) animals were randomly distributed into four (4) groups of equal number (N=15) characterized by the dosage of the administered compound.
# The study was conducted for three different doses of the compound of Formula I. A group of mice receiving only the carrier (starch solution) served as the control group (placebo group).
# Colitis was induced by introducing 0.1 mL of TNBS (trinitrobenzene sulfonate) (130 μg/mL in 30% EtOH) into the large intestine through a polyethylene catheter introduced by 3 cm into the anus of mice anesthetized with isoflurane. Then, the mice were arranged individually, and changes in the body weight, appearance and behavior were observed daily. A histological study of the mucosa structure, cell infiltrate, intestinal crypt abscesses and goblet cells confirmed significant damage caused by the TNBS introduction on Day 3 and, in a significant degree, on Day 7 [6].
# The preparations were introduced orally in three days after the TNBS introduction and then once daily for the whole study period.
# To assess pain behavior, the von Frey test with filaments (appearance of mechanical allodynia) on Day 28 after the TNBS introduction.
# The animals were put into an acrylic chamber (15×15×15 cm) raised above the ground with a wire mesh on the bottom. Before starting the tests, the animals were left in the chamber for 5-10 minutes for adaptation. Then, the abdominal cavity of the animal was stimulated with von Frey calibrated filaments (or fibers) (BIOSEB, USA). The filaments were a set of 10 standard plastic fibers of increasing diameters. The fiber rigidity, which is expressed as a minimal force required to flex a fiber, was increased in such calibration logarithmically, with absolute values from 0.6 g to 26 g. Sensitivity threshold of each mouse was determined in three repeats (6 touches in total with 10-second interval for each filament; the interval between successive touches with different filaments was 2 minutes). The abdominal surface was poked with a force required to flex the fiber, and the fiber was held in that position for 6-8 seconds. The positive response was recorded, if the animal sharply winced during touching. A sensitivity threshold was determined by a minimal pressure causing the wincing reflex reaction (4 times of 6 touches).
# An average score received in a corresponding test and a standard error of the mean for each value were calculated for each study group (n=15).
substance,measurement,setting,value
"[2-(dimethylamino)-2-phenylbutyl]-3,4,5-trimethoxybenzoate 4-methyl-2H-chromen-2-on-7-yl sulphate [Compound of Formula I]","Mechanical allodynia intensity, g (mean ± standard error of the mean)","dose 10 mg/day (recalculated for a human), group 2, n=15",10.0 ± 0.5 g
same,"Mechanical allodynia intensity, g (mean ± standard error of the mean)","dose 300 mg/day (recalculated for a human), group 3, n=15",21.4 ± 0.9 g
same,"Mechanical allodynia intensity, g (mean ± standard error of the mean)","dose 1,800 mg/day (recalculated for a human), group 4, n=15",23.1 ± 1.0 g
same,Indices of mechanical allodynia versus placebo,"groups receiving the compound (10, 300, 1,800 mg/day), p < 0.05 versus placebo",significantly lower
